{"source": "patent US20260274810A1", "about": "“NOVEL MITOFUSIN INHIBITORS” (ALBERT EINSTEIN COLLEGE OF MEDICINE, priority 2023, published 2026)", "key": {"[1]": {"test_system": "cells", "assay": "Cell death assay (Annexin V / PI)", "format": "cell-based", "description": "(§1) Cell death assay. Cells (2×10^5 cells/well) were seeded in a 6-well plate and treated with the indicated drugs for 6 hours. Cells were dissociated using Accutase (Thermo Fisher; Cat. #00-4555-56) in order to avoid accidental exposure of phosphatidylserine on the outer plasma membrane. Cell death was evaluated with Dead Cell Apoptosis Kit with Annexin V Alexa Fluor™ 488 & Propidium Iodide (Thermo Fisher; Cat. #V13241) according to manufacturer's protocol. Data was acquired by BD LSRII flow cytometer system using BD FACSDiva software. Data was analyzed by FlowJo (BD)."}, "[2]": {"test_system": "MEFs", "assay": "Mitochondrial respiration in cellulo (OCR)", "format": "cell-based, mouse", "conditions": "WT MEFs; MASM7 1 μM or MFI8 20 μM, 6 hrs", "description": "Mitochondrial respiration in cellulo. Mitochondrial oxygen consumption rates (OCR) were assessed using a XF24 Analyzer (Seahorse Biosciences, Billerica MA, USA). In brief, 3×10^4 MEFs were cultured in a XF24 cell culture microplate containing DMEM supplemented with 10% fetal bovine serum. Cells were treated with MASM7 (1 μM) or MFI8 (20 μM) 6 hrs prior to OCR analysis. Mitochondrial respiration was assessed by the sequential addition of oligomycin (1 μM), carbonyl cyanide-4-(trifluoromethoxy)phenylhydrazone (FCCP, 2 μM) and rotenone (1 μM)-antimycin (1 μM) as previously reported. OCR was normalized to cell number or total protein content per well for each condition tested."}, "[3]": {"test_system": "U2OS cells", "assay": "Mitochondrial fusion in U2OS cells", "format": "cell-based", "description": "Measurement of mitochondrial aspect ratio (Mito AR). Images that depict stained mitochondria with mitotracker green were analyzed using FIJI We measured for each mitochondrion its length and width. Then, we divided the length by the width for each mitochondrion to get its mitochondrial aspect ratio. >200 mitochondria were measured per treatment."}, "[4]": {"test_system": "THP-1 cells", "assay": "Cell death with BV6", "format": "cell-based", "description": "as §1"}, "[5]": {"test_system": "U2OS cells", "assay": "Cell death with BV6", "format": "cell-based", "description": "as §1"}, "[6]": {"test_system": "MEFs", "assay": "Cytochrome C release", "format": "cell-based, mouse", "conditions": "6 hrs; mitofusin dependent", "description": "Cytochrome C release. MEFs were seeded in a […] and grown at ~70% confluence. Following 6 hrs treatment with MFI8, cells were harvested and lysed in digitonin buffer [20 mM Hepes, pH 7.2, 10 mM KCl, 5 mM MgCl2, 1 m MEDTA, 1 mM EGTA, 250 mM sucrose, 0.025% Digitonin (from 5% w/v stock) and complete protease inhibitors (Roche Applied Science)] on ice for 10 min. Then, supernatants were isolated by centrifugation at 15,000×g for 10 min. Mitochondrial pellets solubilized in 1% Triton X-100/PBS for 1 hr at 4° C. Solubilized Pellets were subjected to a 14,000×rpm spin for 10 min. Samples were prepared for western blot analysis and separated by 4-12% NuPage (Life Technologies)."}, "[7]": {"test_system": "MFN1 and MFN2", "assay": "MFN1 and MFN2 gene expression and protein levels", "format": "cell-based", "description": "Western blot. Western blots were performed from whole cell lysates (WCL) prepared in lysis buffer containing 50 mM Tris-HCl pH 7.5, 1% Triton X-100, 150 mM NaCl, 5 mM MgCl2, 1 mM EGTA and 10% glycerol in the presence of protease inhibitor cocktail (Roche).\nAnalysis of mitochondrial biogenesis-related genes by q-PCR. Total RNA was extracted by using RNeasy Mini Kit (Qiagen) followed by cDNA synthesis using the SuperScript IV VILO Master Mix (Thermo Scientific), both performed according to the manufacturer's protocol. q-PCR was performed using the following primers: […]\nFor the q-PCR reaction, Power SYBR Green master mix (Thermo Scientific) was used according to the manufacturer's instructions. Briefly, each reaction consisted of 10 ng cDNA, 5 μL Power SYBR Green master mix, 200 nM primers (forward and reverse), and RNase-free water up to 10 μL. q-PCR was performed on the ViiA 7 Real-Time PCR System (Thermo Scientific) with the following cycle parameter: 95° C. for 10 min, 40 cycles of 95° C. for 15 s, and 60° C. for 1 min. q-PCR products were analyzed by melting curves for unspecific products or primer dimer formation."}, "[8]": {"test_system": "caspase-3/7 in U2OS cells", "assay": "Caspase-3/7 activation assay", "format": "cell-based", "description": "(§2) Caspase-3/7 activation assay. Cells (5×10^3 cells/well) were seeded in a 96-well white plate and treated with MASM7, MFI8. Caspase 3/7 activation was measured after 6 hr by addition of the Caspase-Glo 3/7 reagent according to the manufacturer's protocol (Promega). Luminescence was detected by a F200 PRO microplate reader (TECAN). Caspase assays were performed in at least triplicate and the data normalized to vehicle-treated control wells. Dilutions of MASM7 or MFI8 were performed using a TECAN D300e Digital Dispenser from 10 mM stocks."}, "[9]": {"test_system": "cells", "assay": "Cell viability assay (CellTiter-Glo)", "format": "cell-based", "conditions": "72 hours", "description": "Cell viability assay. Cells (5×10^3 cells/well) were seeded in a 96-well white plate and treated with serial dilutions of MASM7 or MFI8. Cell viability was assayed after 72 hrs by addition of CellTiter-Glo reagent according to the manufacturer's protocol (Promega). Luminescence was measured using a F200 PRO microplate reader (TECAN). Viability assays were performed in at least triplicate and the data normalized to vehicle-treated control wells. Dilutions of MASM7 or MFI8 were performed using a TECAN D300e Digital Dispenser from 10 mM stocks."}, "[10]": {"test_system": "U2OS cells", "assay": "DNA damage, γH2AX immunofluorescence", "format": "cell-based", "description": "Immunofluorescent analysis and microscopy. Cells were treated with MASM7, MFI8 and or Q-VD-OPh at ~70% confluence for 6 h. After treatments, cells were washed with PBS and fixed with 4% PFA for 15 min. Then cells were permeabilized with 0.1% Triton X-100 in PBS for 10 min. Cells were blocked with 5% BSA in PBS-T and incubated overnight with primary antibodies as indicated; γH2AX (Sigma; 05-636, 1:100 dilution). After incubation with primary antibodies, cells were washed with PBS and incubated with the appropriate mouse secondary antibody (ThermoFisher Scientific; A-11001) in the blocking solution. After PBS washes, coverslips were dipped in water and mounted on glass slides using Vectashield containing DAPI (Vector laboratories). Images were taken with Leica SP5 inverted confocal microscope. Data were analyzed with ImageJ."}, "[11]": {"test_system": "caspase-3/7 in MEFs", "assay": "Caspase-3/7 activation assay", "format": "cell-based, mouse", "description": "as §2"}, "[12]": {"test_system": "MOLM13 cells", "assay": "Caspase 3/7 activation with AMG-176", "format": "cell-based", "conditions": "increasing concentrations of AMG-176 and MFI8", "description": "as §2"}}}
{"smiles": "Cc1cccc(NC(C)c2cc(Cl)ccc2O)c1C", "note": "(centres unmarked) [MFI8]", "values": [{"measurement": "sensitization to BV6-induced cell death", "setting": "[1]; combined with BV6", "value": "potentiated the capacity of BV6 to induce cell death"}, {"measurement": "sensitization to BV6-induced cell death", "setting": "[1]; deletion of MFN1/2 and APAF", "value": "abolished the capacity of MFI8 to sensitize cells to BV6 treatment"}, {"measurement": "percentage of dead cells", "setting": "[1]; upon caspase 3/7 activation", "value": "did not increase the percentage of dead cells"}, {"measurement": "respiration and mitochondrial ATP production", "setting": "[2]", "value": "reduced respiration and mitochondrial ATP production"}, {"measurement": "mitochondrial fusion", "setting": "[3]", "value": "inhibited mitochondrial fusion in U2OS cells"}, {"measurement": "cell death in combination with BV6", "setting": "[4]", "value": "synergistically induce cell death"}, {"measurement": "cell death in combination with BV6", "setting": "[5]", "value": "synergistically induce cell death"}, {"measurement": "cytochrome c release to the cytosol", "setting": "[6]", "value": "cytochrome c was released to the cytosol, albeit at modest levels"}, {"measurement": "MFN1 and MFN2 gene expression and protein levels", "setting": "[7]", "value": "neither MASM7 nor MFI8 altered"}, {"measurement": "caspase-3/7 activation", "setting": "[8]", "value": "induced caspase-3/7 activation"}, {"measurement": "cellular viability", "setting": "[9]", "value": "neither MFI8 nor MASM7 decreased cellular viability"}, {"measurement": "DNA damage", "setting": "[10]; U2OS cells", "value": "induced DNA damage in U2OS cells"}, {"measurement": "DNA damage", "setting": "[10]; U2OS, co-treatment with pan-caspase inhibitor Q-VD-OPh", "value": "abolished the capacity of the latter to induce DNA damage"}, {"measurement": "caspase-3/7 activity", "setting": "[11]; 6 hr", "value": "concentration-responsively increased caspase-3/7 activity"}, {"measurement": "caspase 3/7 activity", "setting": "[11]; deletion of APAF-1", "value": "detrimental for the capacity of MFI8 to increase caspase 3/7 activity"}, {"measurement": "caspase-3/7 activity", "setting": "[11]; deletion of MFN1/MFN2", "value": "impaired the capacity of MFI8 to increase caspase-3/7 activity"}, {"measurement": "caspase 3/7 activation in combination with AMG-176", "setting": "[12]", "value": "sensitizes cells to caspase activation in response to BH3 mimetic (MCL-1 inhibitor) AMG-176 treatment"}]}
